Reference: ChEMBL document CHEMBL5465560, “Selectivity Literature for EUbOPEN Chemogenomic Library” (2024)

Key:
[1] = biological target: Cyclin-dependent kinase 2 (Homo sapiens, UniProt P24941); test: Selectivity interaction (ActivX KiNativ screen (kinase selectivity in THP-1 cell lysates)) EUB0000639a CDK2; type: subcellular; conditions: lysate, at 0.2 µM
[2] = biological target: T1, Ephrin type-A receptor 8 (Homo sapiens) (UniProt P29322); test: Selectivity interaction (KinomeScan (DiscoverX)) EUB0000595a EPHA8; conditions: at 10 µM
T1 sequence (whole entry): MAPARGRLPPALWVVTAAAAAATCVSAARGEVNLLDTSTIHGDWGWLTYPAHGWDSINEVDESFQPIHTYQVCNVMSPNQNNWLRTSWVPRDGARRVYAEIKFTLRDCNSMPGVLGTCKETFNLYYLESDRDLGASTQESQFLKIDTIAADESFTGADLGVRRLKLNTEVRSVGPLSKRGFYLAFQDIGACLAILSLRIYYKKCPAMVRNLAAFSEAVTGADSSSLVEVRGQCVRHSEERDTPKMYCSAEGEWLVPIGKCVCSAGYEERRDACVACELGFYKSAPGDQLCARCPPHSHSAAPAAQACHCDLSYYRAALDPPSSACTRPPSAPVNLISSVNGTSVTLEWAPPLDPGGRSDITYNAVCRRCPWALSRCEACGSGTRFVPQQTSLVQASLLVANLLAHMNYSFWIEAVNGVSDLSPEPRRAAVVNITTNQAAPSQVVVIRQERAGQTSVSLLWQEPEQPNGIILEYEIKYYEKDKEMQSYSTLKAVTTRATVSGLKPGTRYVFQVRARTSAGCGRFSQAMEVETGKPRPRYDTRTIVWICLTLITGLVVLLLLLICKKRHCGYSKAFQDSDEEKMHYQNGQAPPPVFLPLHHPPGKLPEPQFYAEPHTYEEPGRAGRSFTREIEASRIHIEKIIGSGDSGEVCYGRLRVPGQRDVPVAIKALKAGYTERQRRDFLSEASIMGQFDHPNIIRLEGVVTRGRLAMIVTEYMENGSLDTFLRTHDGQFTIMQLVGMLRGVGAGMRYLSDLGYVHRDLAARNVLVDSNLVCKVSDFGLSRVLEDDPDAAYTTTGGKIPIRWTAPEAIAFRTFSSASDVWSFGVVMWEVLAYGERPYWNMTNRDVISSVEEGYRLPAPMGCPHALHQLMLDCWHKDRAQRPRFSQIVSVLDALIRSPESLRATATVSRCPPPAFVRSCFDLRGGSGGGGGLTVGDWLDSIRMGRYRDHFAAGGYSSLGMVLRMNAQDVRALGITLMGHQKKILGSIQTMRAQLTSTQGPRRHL

[3] = biological target: [Pyruvate dehydrogenase (acetyl-transferring)] kinase isozyme 1, mitochondrial (Homo sapiens, UniProt Q15118); test: Selectivity interaction (Millipore kinase profiler) EUB0000124b PDK1; conditions: at 10 µM
[4] = biological target: Citron Rho-interacting kinase (Homo sapiens) (UniProt O14578); test: Selectivity interaction (Ambit KINOMEscan and KiNATiv profiling in Jurkat cells) EUB0000090b CIT; type: cell-based; conditions: at 1 µM
[5] = biological target: T2, Phosphorylase b kinase gamma catalytic chain, liver/testis isoform (Homo sapiens) (UniProt P15735); test: Selectivity interaction (Ambit KINOMEscan and KiNATiv profiling in Jurkat cells) EUB0000090b PHKG2; type: cell-based; conditions: at 1 µM
T2 sequence (whole entry): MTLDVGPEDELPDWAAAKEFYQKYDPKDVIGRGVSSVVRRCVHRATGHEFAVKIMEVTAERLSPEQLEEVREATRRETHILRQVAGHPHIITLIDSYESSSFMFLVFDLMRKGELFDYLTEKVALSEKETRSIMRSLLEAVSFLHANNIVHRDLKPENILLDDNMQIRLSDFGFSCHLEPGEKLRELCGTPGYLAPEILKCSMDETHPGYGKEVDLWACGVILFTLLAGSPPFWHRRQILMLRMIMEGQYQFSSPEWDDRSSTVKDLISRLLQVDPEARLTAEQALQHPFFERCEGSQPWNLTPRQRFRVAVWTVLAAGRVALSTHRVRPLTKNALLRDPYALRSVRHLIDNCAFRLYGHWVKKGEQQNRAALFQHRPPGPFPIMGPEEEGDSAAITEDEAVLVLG

[6] = biological target: Cyclin-dependent kinase 11B (Homo sapiens) (UniProt P21127); test: Selectivity interaction (KinomeScan (DiscoverX)) EUB0000045b CDK11B
[7] = biological target: Serine/threonine-protein kinase 35 (Homo sapiens) (UniProt Q8TDR2); test: Selectivity interaction (KinomeScan (DiscoverX)) EUB0000045b STK35
[8] = biological target: Serine/threonine-protein kinase Nek6 (Homo sapiens) (UniProt Q9HC98); test: Selectivity interaction (Kinase panel (KiNativ target engagement assay in Jurkat cells)) EUB0001635a NEK6; type: cell-based; conditions: Selectivity number of off-targets 0.0, Selectivity number of targets 233.0, Source Knowledge https://www.sciencedirect.com/science/article/pii/S2451945619300674?via%3Dihub, at 1 µM
[9] = biological target: Ribosomal protein S6 kinase alpha-2 (Homo sapiens) (UniProt Q15349); test: Selectivity interaction (KinomeScan (DiscoverX)) EUB0000092b RPS6KA2; conditions: at 10 µM
[10] = biological target: Tyrosine-protein kinase CSK (Homo sapiens) (UniProt P41240); test: Selectivity interaction (KinomeScan (DiscoverX)) EUB0000092b CSK; conditions: at 10 µM
Chain of Tyrosine-protein kinase CSK (Homo sapiens) (P41240 2-450 limits assumed): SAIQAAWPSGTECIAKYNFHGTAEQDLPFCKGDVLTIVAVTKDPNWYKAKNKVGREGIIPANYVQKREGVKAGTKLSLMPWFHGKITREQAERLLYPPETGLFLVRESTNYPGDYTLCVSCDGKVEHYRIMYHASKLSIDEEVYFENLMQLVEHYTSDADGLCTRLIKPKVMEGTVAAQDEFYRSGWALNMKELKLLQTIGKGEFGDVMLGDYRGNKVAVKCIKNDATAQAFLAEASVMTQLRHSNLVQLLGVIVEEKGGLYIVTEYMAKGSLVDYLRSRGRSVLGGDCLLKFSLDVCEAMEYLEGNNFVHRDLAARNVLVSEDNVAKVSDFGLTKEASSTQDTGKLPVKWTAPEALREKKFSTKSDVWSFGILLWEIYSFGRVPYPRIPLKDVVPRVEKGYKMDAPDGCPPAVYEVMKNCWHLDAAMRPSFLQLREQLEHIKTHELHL

Chain of Serine/threonine-protein kinase 35 (Homo sapiens) (Q8TDR2 whole entry): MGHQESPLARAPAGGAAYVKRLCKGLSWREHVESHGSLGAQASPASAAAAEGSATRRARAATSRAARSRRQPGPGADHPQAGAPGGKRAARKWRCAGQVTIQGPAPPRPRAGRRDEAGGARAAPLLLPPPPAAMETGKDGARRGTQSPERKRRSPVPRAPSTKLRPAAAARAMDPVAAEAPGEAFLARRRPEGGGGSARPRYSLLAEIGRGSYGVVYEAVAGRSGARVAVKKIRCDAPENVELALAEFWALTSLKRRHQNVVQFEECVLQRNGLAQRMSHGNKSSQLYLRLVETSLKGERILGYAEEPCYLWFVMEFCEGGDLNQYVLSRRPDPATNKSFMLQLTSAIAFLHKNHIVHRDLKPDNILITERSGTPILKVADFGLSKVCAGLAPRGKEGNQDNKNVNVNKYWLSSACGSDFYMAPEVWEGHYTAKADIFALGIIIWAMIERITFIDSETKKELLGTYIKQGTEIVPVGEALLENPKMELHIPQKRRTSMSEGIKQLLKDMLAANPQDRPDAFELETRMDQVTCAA
Chain of Cyclin-dependent kinase 11B (Homo sapiens) (P21127 whole entry): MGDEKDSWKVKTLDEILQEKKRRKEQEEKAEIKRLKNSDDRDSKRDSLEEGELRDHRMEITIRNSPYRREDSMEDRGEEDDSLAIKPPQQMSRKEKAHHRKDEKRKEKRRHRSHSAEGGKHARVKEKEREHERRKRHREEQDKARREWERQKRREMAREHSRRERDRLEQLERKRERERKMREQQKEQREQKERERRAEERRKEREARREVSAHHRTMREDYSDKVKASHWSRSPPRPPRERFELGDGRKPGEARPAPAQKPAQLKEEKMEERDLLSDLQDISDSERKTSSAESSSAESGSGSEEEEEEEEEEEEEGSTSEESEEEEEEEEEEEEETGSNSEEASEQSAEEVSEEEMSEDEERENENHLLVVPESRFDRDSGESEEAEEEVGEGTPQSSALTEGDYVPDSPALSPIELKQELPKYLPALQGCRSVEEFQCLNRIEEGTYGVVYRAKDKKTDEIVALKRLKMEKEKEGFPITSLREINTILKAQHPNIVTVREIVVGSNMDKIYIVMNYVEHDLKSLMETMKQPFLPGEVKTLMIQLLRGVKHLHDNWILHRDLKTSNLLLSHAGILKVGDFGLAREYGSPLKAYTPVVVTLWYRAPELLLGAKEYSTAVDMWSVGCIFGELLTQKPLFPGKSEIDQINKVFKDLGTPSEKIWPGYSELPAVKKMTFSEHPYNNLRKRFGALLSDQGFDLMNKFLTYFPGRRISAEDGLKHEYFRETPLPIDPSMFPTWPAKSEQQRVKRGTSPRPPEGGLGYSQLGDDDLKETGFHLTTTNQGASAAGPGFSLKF
Chain of Ribosomal protein S6 kinase alpha-2 (Homo sapiens) (Q15349 whole entry): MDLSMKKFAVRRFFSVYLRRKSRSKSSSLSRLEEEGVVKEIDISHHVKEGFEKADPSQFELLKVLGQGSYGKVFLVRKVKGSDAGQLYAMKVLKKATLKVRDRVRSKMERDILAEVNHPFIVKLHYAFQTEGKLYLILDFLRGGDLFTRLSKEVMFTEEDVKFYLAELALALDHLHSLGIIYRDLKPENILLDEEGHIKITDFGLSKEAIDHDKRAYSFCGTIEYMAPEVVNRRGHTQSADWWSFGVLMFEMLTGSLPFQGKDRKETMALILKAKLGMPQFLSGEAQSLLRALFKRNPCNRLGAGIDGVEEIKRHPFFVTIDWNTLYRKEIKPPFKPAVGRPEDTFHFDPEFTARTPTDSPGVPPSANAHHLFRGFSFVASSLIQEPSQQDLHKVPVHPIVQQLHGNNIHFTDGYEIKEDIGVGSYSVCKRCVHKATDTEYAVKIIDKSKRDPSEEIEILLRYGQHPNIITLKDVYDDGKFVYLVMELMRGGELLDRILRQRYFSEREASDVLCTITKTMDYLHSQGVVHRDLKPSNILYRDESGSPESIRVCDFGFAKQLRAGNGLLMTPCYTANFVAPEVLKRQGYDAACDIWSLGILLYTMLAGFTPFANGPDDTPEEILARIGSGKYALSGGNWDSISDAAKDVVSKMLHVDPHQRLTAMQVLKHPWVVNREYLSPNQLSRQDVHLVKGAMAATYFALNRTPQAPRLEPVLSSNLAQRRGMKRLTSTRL
Chain of Serine/threonine-protein kinase Nek6 (Homo sapiens) (Q9HC98 whole entry): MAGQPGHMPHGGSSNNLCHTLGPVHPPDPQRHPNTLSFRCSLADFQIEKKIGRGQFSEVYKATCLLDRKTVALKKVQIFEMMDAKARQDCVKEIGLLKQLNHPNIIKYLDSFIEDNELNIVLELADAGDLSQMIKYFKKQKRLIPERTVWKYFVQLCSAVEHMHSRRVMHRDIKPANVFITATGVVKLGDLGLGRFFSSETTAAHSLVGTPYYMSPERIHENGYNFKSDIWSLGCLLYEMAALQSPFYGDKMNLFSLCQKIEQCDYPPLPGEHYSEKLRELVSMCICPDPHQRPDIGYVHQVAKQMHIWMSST
Chain of Citron Rho-interacting kinase (Homo sapiens) (O14578 whole entry, canonical isoform): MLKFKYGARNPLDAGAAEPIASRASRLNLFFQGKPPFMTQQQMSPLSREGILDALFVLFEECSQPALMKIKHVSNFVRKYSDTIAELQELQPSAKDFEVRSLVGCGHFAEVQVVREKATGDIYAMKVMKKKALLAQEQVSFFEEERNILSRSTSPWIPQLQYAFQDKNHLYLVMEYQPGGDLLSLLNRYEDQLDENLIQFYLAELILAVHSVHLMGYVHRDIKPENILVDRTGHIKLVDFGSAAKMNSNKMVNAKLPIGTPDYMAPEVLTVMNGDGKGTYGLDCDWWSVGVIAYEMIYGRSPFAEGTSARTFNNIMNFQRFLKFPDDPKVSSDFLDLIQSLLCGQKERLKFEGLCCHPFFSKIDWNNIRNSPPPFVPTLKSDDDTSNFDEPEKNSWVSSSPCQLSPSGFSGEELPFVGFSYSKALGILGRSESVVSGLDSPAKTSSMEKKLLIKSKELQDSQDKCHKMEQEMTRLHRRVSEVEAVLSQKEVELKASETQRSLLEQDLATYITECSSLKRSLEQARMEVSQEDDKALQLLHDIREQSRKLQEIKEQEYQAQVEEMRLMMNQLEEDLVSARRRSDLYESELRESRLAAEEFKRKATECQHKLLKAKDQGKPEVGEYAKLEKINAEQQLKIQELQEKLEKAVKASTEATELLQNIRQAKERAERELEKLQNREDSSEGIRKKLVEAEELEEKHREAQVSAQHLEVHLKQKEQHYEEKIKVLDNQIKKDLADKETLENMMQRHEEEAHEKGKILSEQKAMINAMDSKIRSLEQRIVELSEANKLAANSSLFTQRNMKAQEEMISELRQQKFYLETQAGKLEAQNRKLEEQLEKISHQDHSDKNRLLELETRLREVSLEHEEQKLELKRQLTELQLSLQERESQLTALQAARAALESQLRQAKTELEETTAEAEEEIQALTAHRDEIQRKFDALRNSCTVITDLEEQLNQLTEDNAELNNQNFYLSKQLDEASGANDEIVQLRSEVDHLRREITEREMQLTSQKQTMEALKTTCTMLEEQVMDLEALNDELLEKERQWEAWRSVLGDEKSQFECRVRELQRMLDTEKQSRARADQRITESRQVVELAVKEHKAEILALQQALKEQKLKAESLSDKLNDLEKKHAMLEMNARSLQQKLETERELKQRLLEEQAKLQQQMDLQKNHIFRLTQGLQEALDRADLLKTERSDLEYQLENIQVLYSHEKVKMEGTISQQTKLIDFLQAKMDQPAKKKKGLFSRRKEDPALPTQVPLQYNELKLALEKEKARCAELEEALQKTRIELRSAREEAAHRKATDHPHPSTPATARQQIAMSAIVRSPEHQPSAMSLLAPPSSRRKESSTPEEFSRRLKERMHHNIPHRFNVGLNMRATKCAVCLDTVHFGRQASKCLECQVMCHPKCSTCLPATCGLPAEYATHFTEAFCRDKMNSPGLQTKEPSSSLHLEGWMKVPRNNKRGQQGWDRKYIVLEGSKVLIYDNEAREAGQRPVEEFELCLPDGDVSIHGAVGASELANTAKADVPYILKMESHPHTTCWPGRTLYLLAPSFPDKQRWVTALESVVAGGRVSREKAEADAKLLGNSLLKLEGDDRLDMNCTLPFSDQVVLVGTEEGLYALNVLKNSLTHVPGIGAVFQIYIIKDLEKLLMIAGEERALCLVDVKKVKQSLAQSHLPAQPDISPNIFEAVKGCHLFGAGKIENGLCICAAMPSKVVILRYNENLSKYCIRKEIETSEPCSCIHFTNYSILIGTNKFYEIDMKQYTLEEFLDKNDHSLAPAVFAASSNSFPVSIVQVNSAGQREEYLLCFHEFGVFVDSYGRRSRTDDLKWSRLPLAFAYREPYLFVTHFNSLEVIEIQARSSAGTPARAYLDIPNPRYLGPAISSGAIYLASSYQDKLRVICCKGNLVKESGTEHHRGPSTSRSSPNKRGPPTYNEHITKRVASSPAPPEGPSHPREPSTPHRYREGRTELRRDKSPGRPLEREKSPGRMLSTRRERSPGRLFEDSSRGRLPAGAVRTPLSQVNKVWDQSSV

`CC[C@@H]1[C@H](F)C(=O)N[C@@H]1COc1nccc2cc(C(N)=O)c(OC)cc12` [ZIMLOVISERTIB] gave a % of inhibition [1] of -1%.
Work on `COCC(=O)NC/C=C/c1ccc2ncnc(Nc3ccc(Oc4ccc(C)nc4)c(C)c3)c2c1` [CP-724714] yielded a % of control [2] of 98%.
Work on `CC(=O)Nc1cccc(-n2c(=O)n(C3CC3)c(=O)c3c(Nc4ccc(I)cc4F)n(C)c(=O)c(C)c32)c1` yielded a % of control [3] of 107%.
In the case of `CN(C)C/C=C/C(=O)Nc1ccc(C(=O)N2CCCC(Nc3ncc(Cl)c(-c4c[nH]c5ccccc45)n3)C2)cc1` (configuration not stated), the % of control [4] is reported as 83% and the % of control [5] is reported as 94%.
Compound `C=CC(=O)Nc1cc(-n2c(=O)ccc3cnc4ccc(-c5ccc(NS(C)(=O)=O)cc5)cc4c32)ccc1C` has a % of control ([6]; at 1 µM) of 100%, a % of control ([6]; at 10 µM) of 99% and a % of control ([7]; at 1 µM) of 100%. The % of control ([7]; at 10 µM) was 100%.
Compound `C=CC(=O)Nc1ccc(C(=O)Nc2[nH]nc3c2CN(C(=O)N[C@H](CN(C)C)c2ccccc2)C3(C)C)cc1` has a % of engagement [8] of 2.3%.
`CCC(=O)N1CCN(c2ccc(-n3c(=O)ccc4cnc5ccc(-c6cnc7ccccc7c6)cc5c43)cc2C(F)(F)F)CC1` showed a % of control [9] of 85% and a % of control [10] of 71%.
